Columns and labels:
[1] = tested on: PC-3; test: cells; settings: Homo sapiens, PC-3, 72 h
Description: Cytotoxicity against human PC3 cells after 72 hrs by MTT assay

[2] = biological target: T1, Beta-glucuronidase (Homo sapiens, UniProt P08236); test: Inhibition of beta-glucuronidase activity (unknown origin) assessed as p-nitrophenol formation after 30 mins using p-nitrophenyl-beta-D-glucuronide as substrate by spectrophotometry
T1 sequence (P08236 whole entry): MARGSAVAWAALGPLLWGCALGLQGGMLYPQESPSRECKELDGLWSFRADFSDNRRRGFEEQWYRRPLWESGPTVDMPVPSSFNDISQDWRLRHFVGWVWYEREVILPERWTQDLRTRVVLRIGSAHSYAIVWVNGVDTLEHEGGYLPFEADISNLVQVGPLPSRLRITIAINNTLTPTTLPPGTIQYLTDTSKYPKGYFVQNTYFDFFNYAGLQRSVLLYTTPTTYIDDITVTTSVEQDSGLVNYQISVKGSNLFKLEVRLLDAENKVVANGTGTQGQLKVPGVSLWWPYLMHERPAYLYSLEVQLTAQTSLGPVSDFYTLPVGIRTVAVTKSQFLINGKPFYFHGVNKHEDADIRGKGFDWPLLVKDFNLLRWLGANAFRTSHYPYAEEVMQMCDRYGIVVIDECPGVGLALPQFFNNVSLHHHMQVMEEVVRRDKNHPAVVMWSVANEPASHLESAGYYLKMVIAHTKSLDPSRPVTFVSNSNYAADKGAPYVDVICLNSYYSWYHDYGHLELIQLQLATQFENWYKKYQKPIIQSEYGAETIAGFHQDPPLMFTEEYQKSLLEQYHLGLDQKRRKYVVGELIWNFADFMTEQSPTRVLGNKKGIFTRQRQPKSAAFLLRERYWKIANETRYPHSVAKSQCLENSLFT

Structure (SMILES) | IC50 [1] [µM] | IC50 [2] [µM]
O=c1[nH]c(-c2ccc(Cl)cc2)nc2ccccc12 | > 30 | 
O=c1[nH]c(-c2ccc([N+](=O)[O-])cc2)nc2ccccc12 | > 30 | 20.1
CN(C)c1ccc(-c2nc(O)c3ccccc3n2)cc1 | > 30 | 5.5
COc1ccc(-c2nc(O)c3ccccc3n2)cc1OC | > 30 | 
O=c1[nH]c(-c2ccccc2O)nc2ccccc12 | > 30 | 10
O=c1[nH]c(-c2ccc(O)cc2)nc2ccccc12 | > 30 | 22.2
Cc1ccc(-c2nc3ccccc3c(=O)[nH]2)cc1 | > 30 | 173
O=c1[nH]c(-c2cccc(O)c2)nc2ccccc12 | > 30 | 198
O=c1[nH]c(-c2cccc([N+](=O)[O-])c2)nc2ccccc12 | > 30 | 50.4
COc1ccc(-c2nc3ccccc3c(=O)[nH]2)cc1O | > 30 | 2.8
O=c1[nH]c(-c2c(Cl)cccc2Cl)nc2ccccc12 | > 30 | 
COc1cc(-c2nc3ccccc3c(=O)[nH]2)cc(OC)c1OC | > 30 | 120
CCOc1cc(-c2nc3ccccc3c(=O)[nH]2)ccc1O | > 30 | 
O=c1[nH]c(-c2ccccc2[N+](=O)[O-])nc2ccccc12 | > 30 | 
O=c1[nH]c(-c2ccc(O)c(O)c2)nc2ccccc12 | > 30 | 
O=c1[nH]c(-c2ccc(Cl)cc2Cl)nc2ccccc12 | > 30 | 
O=c1[nH]c(-c2cc(O)ccc2O)nc2ccccc12 | > 30 | 
COc1cccc(-c2nc3ccccc3c(=O)[nH]2)c1O | > 30 | 
CCOc1ccccc1-c1nc2ccccc2c(=O)[nH]1 | > 30 | 
COc1ccc(O)c(-c2nc3ccccc3c(=O)[nH]2)c1 | > 30 | 
O=c1[nH]c(-c2ccccc2Cl)nc2ccccc12 | > 30 | 
O=c1[nH]c(-c2c(O)cccc2Br)nc2ccccc12 | > 30 | 
CCOc1ccc(-c2nc3ccccc3c(=O)[nH]2)cc1 | > 30 | 
COc1ccc(-c2nc3ccccc3c(=O)[nH]2)cc1 | > 30 | 1.1
